Tests used:
human ES cells = test: Cell adhesion / single cell survival 1 day after plating (Example 1); type: cell-based; details: for adhesion at 1 day compared with dishes including the ROCK inhibitor: coating without additives
Experimental: Ninety-six-well tissue cell culture plates were coated overnight at 4° C. with sterile solutions of the ECM proteins mouse LN-111 (Invitrogen), human recombinant LN-511, and human recombinant LN-521, all at a concentration of 30 μg/ml (5 μg/cm^2). For control cells, BD Matrigel™ hESC qualified (BD Biosciences) was used according to the manufacturer's instructions.
The assay was performed as described (Extracellular Matrix Protocols, 2000). Briefly, 96-well plates were coated by extracellular matrix proteins as described above and blocked by O3 medium containing bovine serum albumin. The ES cells were plated at a cell density of 600 cell/mm^2 upon extracellular matrix-coated plates and were left to adhere for either 1 hour or 1 day at the cell incubator. Non-adherent cells were washed away, and adherent cells were fixed for 20 min by 5% glutaraldehyde, stained by 0.1% Crystal Violet.

OCT4 = test: FACS analysis for OCT4; type: cell-based, human; details: after several single cell suspension passages, O3 medium
Experimental: OCT4 expression was analyzed as described in Ludwig, T. E. et al. Derivation of human embryonic stem cells in defined conditions. Nat. Biotechnol. 24, 185-187 (2006). Cells were run on FACSCalibur Flow Cytometer (Becton Dickinson). Data were analyzed with CellQuest software (Becton Dickinson).

hES cells [1] = test: In vivo imaging and migration assay; type: cell-based, human
Experimental: 24-well plates were coated by extracellular matrix proteins and blocked by O3 medium containing bovine serum albumin. The ES cells were plated at cell density of 30,000-40,000 cells/cm^2 onto extracellular matrix-coated plates and left to adhere for half an hour in a cell incubator. After that, the plate was transferred into high content imaging system Operetta (PerkinElmer) equipped with environmental control unit, which allowed to keep 37° C., 5% CO2. For two movies that were made, the brightfield images were taken once in 15 minutes during 24 hours after plating using Harmony software (PerkinElmer), exported, and analyzed using ImageJ software (NIH, the US). For migration assay the images were taken every seven minutes during 18 hours after plating. Images acquired between the fifth and seventh hours after plating were analyzed using MTrackJ plug-in (University Medical Center, Rotterdam, The Netherlands). 100 attached cells on each coating were traced and mean distances from the current to the previous point of the track were calculated. Error bars show standard error of the mean s.e.m. (n=100).

[2] = tested on: PI3K/Akt and MEK1/Erk pathways; test: Western blot with antibodies to phospho-Akt / phospho-Erk; type: cell-based, human; details: data not shown
Experimental: HS 181 cells were trypsinized into single cell suspension as described above. For inhibition experiments, the cells were kept in O3 medium with blocking antibodies or pathway inhibitors for 30 minutes and then 450K cells were plated on 35 mm dishes precoated with the appropriate matrix coating. For other experiments, same number of cells was plated directly after trypsinization. In all cases the cells were allowed to spread for 1 hour at 37° C., 5% CO2. After two washings in ice-cold PBS, the plates with cells were snap frozen in liquid nitrogen and stored at −80° C. To prepare samples for western blots and ELISA, the plates were slowly thawed and kept on ice with 100-150 μl of lysis buffer (50 mM Tris-HCl, pH7.5, 150 mM NaCl, 0.5% deoxycholate, 0.5% SDS, 1% Triton X-100, 1% Igepal, Complete™ (Roche) and Phospho-Stop™ (Roche)) on top. Then, the cells were scraped, pipetted and sheared through a 27G ¾″ needle. After that, the cell pellets were clarified by centrifugation at 16,100 rcf for 15 minutes at 4° C. For western blots, 4-12% gradient gels were used for SDS electrophoresis and the proteins were transferred to PVDF membranes. The membrane was hybridized with the antibody of interest according to the manufacturer's instructions. […] For the densitometry analysis the films were scanned at 2,400 dpi and analyzed by the Chemilmager5500 program (1D-Multi Line densitometry mode). […]

hES cells [3] = test: Clonal survival of individualized hES cells (Example 4); type: cell-based, human; details: mTeSR1 medium, 250 cells per cm^2, 5 days, alkaline phosphatase staining
Experimental: hES cells were plated in mTeSR1 medium on different coatings at a density of 250 cells per cm^2 and monitored after 5 days in culture using an alkaline phosphatase staining kit.
Next, combinations of laminin-521 and E-Cadherin were tested to determine whether the combinations could sustain clonal survival of the cells. Fixed amounts of laminin-521 were used for the cell culture dish coating in combination with titrated E-Cadherin.
Additional tests were performed to test the effects of various modifications to the mTeSR1 medium. A mixture of E-Cadherin to laminin-521 in a ratio of about 1:10 w/w was used to coat the plates. […] Time-lapse photography of the cells confirmed that laminin-521/E-Cadherin coatings facilitated cell survival through proliferation of the single cells, not through the aggregation of different cells.

Integrin α6β1 = Integrin α6β1 (Homo sapiens, UniProt P05556+P23229); details: cited from earlier work
Integrin α6β1, sequence (P23229 24-1130): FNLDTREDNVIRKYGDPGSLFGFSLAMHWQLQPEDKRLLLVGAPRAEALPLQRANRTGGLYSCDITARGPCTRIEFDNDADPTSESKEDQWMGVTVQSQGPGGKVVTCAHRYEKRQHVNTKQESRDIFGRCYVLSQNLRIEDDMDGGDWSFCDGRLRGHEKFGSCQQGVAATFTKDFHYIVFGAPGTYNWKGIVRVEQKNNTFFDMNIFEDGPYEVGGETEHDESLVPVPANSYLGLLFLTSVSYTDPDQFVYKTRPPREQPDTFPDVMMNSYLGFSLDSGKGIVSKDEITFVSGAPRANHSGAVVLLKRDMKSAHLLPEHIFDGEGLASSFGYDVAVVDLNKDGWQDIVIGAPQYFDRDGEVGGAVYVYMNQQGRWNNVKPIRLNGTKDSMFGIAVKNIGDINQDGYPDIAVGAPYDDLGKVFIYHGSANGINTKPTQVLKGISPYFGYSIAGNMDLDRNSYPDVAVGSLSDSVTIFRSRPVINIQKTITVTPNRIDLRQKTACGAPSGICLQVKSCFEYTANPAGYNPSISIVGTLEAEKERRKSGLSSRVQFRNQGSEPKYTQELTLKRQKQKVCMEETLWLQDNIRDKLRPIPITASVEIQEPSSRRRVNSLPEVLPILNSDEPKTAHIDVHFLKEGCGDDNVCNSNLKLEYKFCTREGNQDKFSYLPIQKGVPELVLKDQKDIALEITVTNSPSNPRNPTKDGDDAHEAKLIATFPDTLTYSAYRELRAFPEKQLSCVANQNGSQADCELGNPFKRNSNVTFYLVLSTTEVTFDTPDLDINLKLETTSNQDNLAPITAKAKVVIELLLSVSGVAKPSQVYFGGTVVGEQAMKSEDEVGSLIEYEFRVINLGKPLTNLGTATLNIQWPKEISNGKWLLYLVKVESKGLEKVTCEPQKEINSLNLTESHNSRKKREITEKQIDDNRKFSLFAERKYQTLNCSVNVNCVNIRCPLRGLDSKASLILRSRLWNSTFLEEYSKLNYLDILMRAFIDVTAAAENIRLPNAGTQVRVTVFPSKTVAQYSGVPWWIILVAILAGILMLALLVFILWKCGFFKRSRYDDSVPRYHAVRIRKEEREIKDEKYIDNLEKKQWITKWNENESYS
Integrin α6β1, sequence (P05556 21-798): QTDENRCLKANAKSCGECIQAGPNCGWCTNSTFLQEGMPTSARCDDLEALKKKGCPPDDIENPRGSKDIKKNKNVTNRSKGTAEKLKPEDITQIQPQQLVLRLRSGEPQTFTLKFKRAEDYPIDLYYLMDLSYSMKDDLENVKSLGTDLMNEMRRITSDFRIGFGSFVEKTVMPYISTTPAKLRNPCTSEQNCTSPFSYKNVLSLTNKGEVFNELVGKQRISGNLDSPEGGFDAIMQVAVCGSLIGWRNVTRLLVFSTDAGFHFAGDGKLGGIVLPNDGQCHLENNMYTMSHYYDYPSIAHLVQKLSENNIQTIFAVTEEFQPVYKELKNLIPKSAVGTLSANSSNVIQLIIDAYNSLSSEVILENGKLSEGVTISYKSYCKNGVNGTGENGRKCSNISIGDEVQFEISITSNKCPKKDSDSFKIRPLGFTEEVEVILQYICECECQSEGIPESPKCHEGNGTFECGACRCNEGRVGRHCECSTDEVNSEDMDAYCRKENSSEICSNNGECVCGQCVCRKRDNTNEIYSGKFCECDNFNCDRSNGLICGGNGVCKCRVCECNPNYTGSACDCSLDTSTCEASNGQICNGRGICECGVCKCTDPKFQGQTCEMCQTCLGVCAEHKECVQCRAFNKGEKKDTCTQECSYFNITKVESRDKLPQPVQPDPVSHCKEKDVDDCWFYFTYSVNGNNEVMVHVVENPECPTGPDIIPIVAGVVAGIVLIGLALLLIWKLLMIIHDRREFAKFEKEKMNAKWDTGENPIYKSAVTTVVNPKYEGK

Substance: LN-521: protein formed by joining α5, β2 and γ1 laminin chains; human recombinant, produced in HEK293 cells
- adhesion at 1 day compared with dishes including the ROCK inhibitor (human ES cells): similar
- adhesion at 1 day compared with dishes including the ROCK inhibitor (human ES cells; listed as LN-532): no ROCK inhibitor is necessary
- cells remaining attached / surviving 24 hours after plating (human ES cells; completely dissociated H5181 cells, O3 medium without any additives, no ROCK inhibitor): survived
- adhesion at 1 day relative to Matrigel without additives (human ES cells; without additives): 20 times
- percentage of Oct4 positive (pluripotent) cells compared with Matrigel (OCT4): much higher percentage
- motility of hES cells compared with other coatings (hES cells [1]; between the fifth and seventh hours after plating): higher
- migration of cells compared with Matrigel (imaging) (hES cells [1]; in vivo imaging): much faster
- PI3K/Akt pathway activity (phospho-Akt western blot) [2]: active
- clonal survival of individualized hES cells (hES cells [3]): Neither laminin-521 nor E-Cadherin alone permitted efficient clonal survival
- binding affinity of integrin α6β1 compared with LN-111 (Integrin α6β1): higher
